The values that follow come from US20180292376A1, “DIFFUSION CELL TESTING METHODS CONTAINING BIPHASIC RECEPTOR FLUIDS” (BUFFERAD Illinois Inc. d/b/a Zyleris PharmaTech, Inc., priority 2017, published 2018).

The nature of series [1]: In vitro release testing (IVRT), static vertical diffusion cell, synthetic membrane, UV-VIS analysis. The format is physicochemical. Conditions: petrolatum ointment with 0.5% loteprednol etabonate and 0.3% tobramycin sulfate; 1-octanol:1-hexanol:water 25:25:50 v:v:v. On the procedure:
In Vitro Release Testing Method.
Release of pharmaceutically active compounds from semi-solid dosage forms was evaluated in an in vitro model of static vertical diffusion cell using a synthetic membrane model. […] The samples were analyzed using a UV-VIS spectrometer. […]
Test time points: 0, 2, 4, 6, 8, and 10 hours. Each test was conducted in four replicates (N=4). Square root of test time points: 0, 1.41, 2.00, 2.45, 2.83, and 3.16.
Membrane: Polypropylene (pore size: 0.45 micron).
Static vertical diffusion cell parameters: Area of the membrane diffusion area: 0.95 square centimeters.
Dosing level: infinite dose at about 3.0 milliliter of the semi-solid dosage form.
Static vertical diffusion cell consists of a donor and receptor compartment separated by a synthetic membrane. The dosing compartment was for the dosed semi-solid dosage form. […] Before dosing, the diffusion cell was pre-incubated at 32° C. for about 20 to 45 minutes. The t=0 samples were taken after the incubation period prior to dosing.
During the experiment, the receptor fluid was in intimate contact with the membrane through a mixing mechanism, such as, e.g., magnetic stirring bar, or orbit shaker, and maintained at 32° C. using a heating mechanism, such as, e.g., dry heat block, or circulating water bath. At each time point, entire content of the receptor fluid was collected and replaced with a fresh batch pre-incubated at 32° C.
An ointment dosage form was prepared as an example of the semi-solid dosage form. Petrolatum was heated to about 50 to 70° C. while mixing. Xylene Cyanol was added to the heated petrolatum while heating and mixing. The mixture was mixed until uniform. Then, the mixture was slowly cooled to room temperature while mixing to yield the ointment formulation.

The conditions of series [2]: general statement, no test described; cited from earlier work.

On to `CCOC(=O)O[C@]1(C(=O)OCCl)CC[C@H]2[C@@H]3CCC4=CC(=O)C=C[C@]4(C)[C@H]3[C@@H](O)C[C@@]21C` [loteprednol etabonate, Loteprednol etabonate], for which the “phase of the biphasic receptor fluid in which the released compound is solubilized” value in series [1] is “mostly solubilized in the organic 1-octanol/1-hexanol phase”.
As for Tobramycin sulfate, the solubility in water result in series [2] is “freely soluble”.
